Square brackets hold non-standard residues; d marks the D form. Peptide text beside a SMILES is read from it.
Experiments:
[1] = test system: CL1 human prostate carcinoma cell line; assay: XTT proliferation (cytotoxicity) assay, CL1; format: cell-based
Procedure: (§1) The CL1 human prostate carcinoma (PC) cell line is an androgen-independent (AI) subclone of LNCaP cell line, which was generated by culturing androgen-dependent (AD) LNCaP cells in charcoal-stripped, […], as described (Patel et al. 2000). 22RV1 human PC cells are AI sub-clones of the AD prostatic adenocarcinoma CWR22 xenograft (Sramkoski et al. 1999). CL1 and 22RV1 (ATCC, USA) were grown in RPMI-1640 supplemented with 10% FCS (Biological Industries, Beit Haemek, Israel). PC3 and DU145 are androgen-insensitive (AI) (non-responsive), invasive human prostate cancer cell lines. NIH-3T3 mouse fibroblast cell lines (ATCC, USA) were grown in DMEM supplemented with 10% BS. Murine Lewis lung carcinoma (LLC) cell lines were also grown in DMEM medium supplemented with 10% fetal calf serum and antibiotics under the same conditions as above.
(§2) The anticancer activity of the diastereomers 1, 5 and 11-16, 36-39, 42 and 44 was examined against human CL1 prostate cancer, murine LLC (Lewis lung carcinoma), DU 145 and PC3 cell lines. The cell selectivity of the diastereomeric peptides was also studied by examining their effect on NIH-3T3 normal mouse fibroblasts cell line.
(§3) A 96-well plate (Falcon) was used for the XTT proliferation assay. Cancer cells were grown for 24 hours (day 1) in RPMI-1640 medium ([…] cells/100 μl for LLC, CL1, 22RVI, DU 145 and PC3, respectively) supplemented with 10% fetal calf serum and antibiotics, at 37° C., in humidified atmosphere at 5% CO2 and 95% air, resulting in growth medium pH of 7.4. NIH-3T3 fibroblast cells (1×10^4 cells/100 μl) were grown in DMEM medium supplemented with 10% bovine calf serum and antibiotics under the same conditions as described above for the cancerous cells. Wells in the last two rows served as blanks (medium only, for measuring the background color of the medium) and 100% survival controls (cells and medium only without treatment), respectively.
(§4) In day 2, the peptides were dissolved in sterile PBS to a concentration of 200 μM (or 500 μM). The medium in the assay wells was replaced with 100 μl serum free medium. For the assays at pH 6, the medium was initially concentrated (×5 or ×10) and then diluted with double distilled water and addition of sodium carbonate. Before reaching the correct dilution, the medium was adjusted to pH 6 and then more water was added to reach the final dilution. The cells were grown in physiological pH, and the acidic pH was used only during the 24 hours incubation with the peptides. A sign for the correct acidity was a light yellow color of the medium. In line A of the plate, 160 μl of serum free medium was added, if the initial peptide concentration was 500 μM.
(§5) Peptide solutions, 100 μl (or 40 μl) were added to each assay well in line A, such that the final concentration of the peptide was […] and the volume 200 μl. The medium in the wells was mixed with multichannel pipette 5 times and 100 μl of it were transferred to the next row of wells (line B), to give a peptide concentration of 50 μM. The double dilution of the peptides continued downstream the plate in the same manner. The plates were then incubated for 24 h.
(§6) In day 3, XTT reaction solution was prepared by adding to 100 μl aliquots of activation solution (sodium 3′-[1-(phenyl-aminocarbonyl)-3,4-tetrazolium]-bis(4-methoxy-6-nitro) benzene sulfonic acid hydrate and N-methyl dibenzopyrazine methyl sulfate; mixed in a proportion of 50:1) (protected from light and kept in −20° C.), the substrate. 50 μl of XTT reaction solution were added to each well and the plates were incubated for 2 hours (37° C. and 5% CO2+95% air. In cases the incubation was not enough for the creation of the color, it was extended for up to 24 hours). The optical density was read at wavelength of 450 nm in an ELISA plate reader. Cell viability was determined relative to the control and final results were recorded. The results were confirmed using replications in at least three independent experiments. […]

[2] = test system: DU145 human prostate cancer cell line; assay: XTT proliferation (cytotoxicity) assay, DU145; format: cell-based
Procedure: as §1, §2, §3, §4, §5, §6

[3] = test system: 22RV1 human PC cells xenograft; assay: Inhibition of tumor growth in human prostate cancer xenografts, 22RV1; format: in vivo, nude male mice; settings: 22RV1 xenograft
Procedure: (i) Inhibition of tumor growth in human prostate cancer xenografts. Subcutaneouse (s.c.) implantation of human PC cells in mice was done as previously described in Gavish et al. (Gavish et al. 2002). Briefly, 0.1 ml AI CL1 or 22RV1 human PC cells (5×10^6 cells) in Matrigel were inoculated s.c. into the dorsal side of five to six week-old nude male mice weighing 20-25 g (Harlen Co., Israel). Two weeks after cell implantation, when the tumors diameter reached ≧5 mm (denoted as day 1), the diastereomer 13 and its all L-amino acid analog peptide (at 1 mg/kg, 0.1 mM), or vehicle (PBS, pH=7.4) were injected intratumorally (dosing volume of 2.5 ml/kg) three times a week for a total of 9 doses. Tumor size was measured by a caliper and recorded twice a week during a period of 28 days. Mice were weighed and tumor weight (mg) was estimated by using the formula of length×width×depth×0.52 in mm^3, assuming the specific gravity to be 1. At the end of the treatment, the mice were killed, and the tumors were removed, photographed, and weighed. The animal experimentation was conducted according to the rules of the Institutional Animal Care and Use Committee.
Serum PSA levels. Four weeks after the first treatment, blood was withdrawn from the 22RV1-inoculated mice in order to determine the level of prostate specific antigen (PSA). The blood samples were taken directly to heparin containing tubes, centrifuged, and the supernatants were stored at −20° C. The CanAg PSA EIA kit (CanAg Diagnostics) was used to determine the total PSA in the mice plasma (Gavish et al., 2002). Tumor weight and PSA levels, represented as the mean±SE, were calculated from the raw data and then subjected to Student's t test. A value of P<0.05 was considered as statistically significant.

[4] = test system: 22RV1 prostate tumor lung metastases; assay: Inhibition of prostate tumor-derived lung metastases formation
Source text: During the experiment, the mice were monitored continuously for clinical signs of toxicity.

SMILES: CC(C)C[C@H](NC(=O)[C@H](CC(C)C)NC(=O)[C@@H](CCCCN)NC(=O)[C@H](CC(C)C)NC(=O)[C@H](CC(C)C)NC(=O)[C@H](Cc1c[nH]cn1)NC(=O)[C@@H](CCCCN)NC(=O)[C@@H](CC(C)C)NC(=O)[C@H](CC(C)C)NC(=O)[C@@H](CCCCN)NC(=O)[C@H](Cc1c[nH]cn1)NC(=O)[C@H](CC(C)C)NC(=O)[C@@H](CC(C)C)NC(=O)[C@H](CCCCN)NC(=O)[C@@H](N)CC(C)C)C(N)=O [Peptide 13] (H-LK[dL]LH[dK]L[dL][dK]HLL[dK]LL-NH2)
- potency compared with diastereomer 1 ([1]; CL1, pH 6.0): similarly or significantly more potent
- Lethal Concentration (LC50) ([1]; CL1, pH 6, 24 h): 6.25 µg/mL
- Lethal Concentration (LC50) ([1]; CL1, pH 7.4, 24 h): 6.25 µg/mL
- Lethal Concentration (LC50) ([2]; DU145, pH 6, 24 h): 18.7 µg/mL
- Lethal Concentration (LC50) ([2]; DU145, pH 7.4, 24 h): 25 µg/mL
- tumor weight ([3]; 1 mg/kg intratumorally, 9 doses): significant reduction
- PSA serum levels ([3]; four weeks after first treatment): marked decrease
- body weight compared with vehicle treated control group ([4]; mouse, in vivo): significant increase
- lung metastases ([4]; systemic administration, vs untreated controls): entirely abolished
- clinical signs of toxicity (condition of animals) ([4]; throughout the assay period): good condition

Reference: patent US20090305954A1, “HISTIDINE-CONTAINING DIASTEREOMERIC PEPTIDES AND USES THEREOF” (Yeda Research and Development Co. Ltd., priority 2005, published 2009)
